Measurements from US20240150377A1, “MODULATORS OF CYSTIC FIBROSIS TRANSMEMBRANE CONDUCTANCE REGULATOR” (VERTEX PHARMACEUTICALS INCORPORATED, priority 2020, published 2024).
Read-outs that look alike come from different tables or passages of the source. Each block holds one compound with its values, some of them ahead of it.

Target: T1, CFTR (Homo sapiens, UniProt P13569, DEL508-508)
T1 construct: endogenous in cells; host or cells: primary human bronchial epithelial cells from CF subjects (F508del/MF-HBE), differentiated at air-liquid interface
Experiment: HBE assay: Ussing chamber assay of CFTR-mediated short-circuit currents
Format: cell-based
Details: for EC50: read-out: HBE EC50
How it was run: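 CFTR-mediated Isc (μA/cm²) equals the peak response to apical 20 μM forskolin minus the residual after a 20 μM each BPO/GlyH-101/CFTR inhibitor 172 cocktail, recorded in Ussing chambers at Vhold 0 mV, 37 °C, pH 7.4, with 30 μM apical amiloride. Cells were F508del/MF HBE cultures preincubated 18-24 h with corrector (concentration range or 10 μM) plus 1 μM ivacaftor in 20% human serum.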

[1] = HBE assay, read-out: HBE Max activity (%)
[2] = Table 10, at 10 μM, read-out: HBE activity at 10 (μM) (%)
[3] = Table 11, read-out: HBE Max Activity (%)
[4] = Table 12, read-out: HBE Max Activity (%)
[5] = Table 12, at 10 μM, read-out: HBE Activity at 10 μM (%)
[6] = Table 10, read-out: HBE Max activity (%)
[7] = Table 13, read-out: HBE Max Activity (%)
[8] = HBE assay, 10 μM, read-out: HBE Activity at 10 μM (%)
[9] = Table 13, at 10 μM, read-out: HBE Activity at 10 μM (%)

T1 sequence (P13569 with tags, fused parts or gaps DEL508-508): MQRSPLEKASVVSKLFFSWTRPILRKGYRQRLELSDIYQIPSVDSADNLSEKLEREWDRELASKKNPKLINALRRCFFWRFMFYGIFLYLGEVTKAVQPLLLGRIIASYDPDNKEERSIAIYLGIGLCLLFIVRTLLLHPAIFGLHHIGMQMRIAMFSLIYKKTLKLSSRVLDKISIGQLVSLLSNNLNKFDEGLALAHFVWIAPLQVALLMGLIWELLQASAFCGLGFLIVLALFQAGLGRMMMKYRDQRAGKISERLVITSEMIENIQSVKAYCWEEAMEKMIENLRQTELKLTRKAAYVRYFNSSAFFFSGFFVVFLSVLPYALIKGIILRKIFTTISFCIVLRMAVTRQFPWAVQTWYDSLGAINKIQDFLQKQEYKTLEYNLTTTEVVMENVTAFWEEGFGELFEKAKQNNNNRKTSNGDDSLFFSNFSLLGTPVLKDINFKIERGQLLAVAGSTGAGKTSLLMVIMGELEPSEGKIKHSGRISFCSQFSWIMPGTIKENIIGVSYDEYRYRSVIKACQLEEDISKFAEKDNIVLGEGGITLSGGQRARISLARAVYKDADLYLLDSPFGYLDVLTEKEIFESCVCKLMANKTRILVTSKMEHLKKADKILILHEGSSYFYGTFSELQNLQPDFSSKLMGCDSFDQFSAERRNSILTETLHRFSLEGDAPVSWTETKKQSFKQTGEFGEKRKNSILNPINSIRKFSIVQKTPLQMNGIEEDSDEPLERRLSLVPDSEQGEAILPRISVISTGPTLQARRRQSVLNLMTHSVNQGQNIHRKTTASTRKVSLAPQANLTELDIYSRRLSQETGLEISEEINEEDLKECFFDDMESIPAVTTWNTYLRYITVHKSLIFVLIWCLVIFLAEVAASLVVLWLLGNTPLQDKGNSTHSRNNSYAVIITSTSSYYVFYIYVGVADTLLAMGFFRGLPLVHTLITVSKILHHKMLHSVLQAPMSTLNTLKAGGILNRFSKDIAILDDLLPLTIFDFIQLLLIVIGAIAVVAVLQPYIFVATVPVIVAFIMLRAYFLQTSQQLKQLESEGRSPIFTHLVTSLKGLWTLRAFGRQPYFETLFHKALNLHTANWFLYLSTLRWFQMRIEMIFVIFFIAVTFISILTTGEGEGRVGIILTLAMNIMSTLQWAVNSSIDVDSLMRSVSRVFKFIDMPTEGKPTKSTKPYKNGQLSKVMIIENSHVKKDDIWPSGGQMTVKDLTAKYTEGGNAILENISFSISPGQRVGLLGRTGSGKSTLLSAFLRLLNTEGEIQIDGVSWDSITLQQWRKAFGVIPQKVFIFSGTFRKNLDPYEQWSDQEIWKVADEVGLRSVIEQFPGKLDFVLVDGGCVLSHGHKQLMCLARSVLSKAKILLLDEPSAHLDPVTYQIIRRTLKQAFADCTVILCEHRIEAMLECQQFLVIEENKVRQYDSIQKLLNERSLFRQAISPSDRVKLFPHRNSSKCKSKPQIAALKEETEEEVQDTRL

Compound: Cc1cccc(C)c1-c1cc2nc(n1)NS(=O)(=O)c1cccc(c1)C(=O)N(Cc1cncc(N(C)CC3C4(CC4)C34CC4)n1)[C@H](CC(C)(C)C)CO2 [Compound 442]
EC50 (Table 12): < 1 µM | Emax [4]: > 60%

Compound: Cc1cccc(C)c1-c1cc2nc(n1)NS(=O)(=O)c1cccc(c1)C(=O)N(Cc1nc(N(C)C)cc(N(C)C)n1)[C@H](CC(C)(C)C)CO2 [Compound 322]
EC50 (Table 12): < 1 µM | Emax [4]: > 60%

Compound: Cc1cccc(C)c1-c1cc2nc(n1)NS(=O)(=O)c1cccc(c1)C(=O)N(CCc1cccc(N3CCOCC3)n1)[C@H](CC(C)(C)C)CO2 [Compound 110, (11R)-6-(2,6-Dimethylphenyl)-11-(2,2-dimethylpropyl)-12-[2-(6-morpholino-2-pyridyl)ethyl]-2,2-dioxo-9-oxa-2λ^6-thia-3,5,12,19-tetrazatricyclo[12.3.1.14,8]nonadeca-1(18),4(19),5,7,14,16-hexaen-13-one]
activation at 10 µM (Table 11, at 10 μM, read-out: HBE Activity at 10 μM (%)): > 60% | EC50 (Table 11): < 1 µM | Emax [3]: > 60%

Compound: Cc1cccc(C)c1-c1cc2nc(n1)NS(=O)(=O)c1cccc(c1)C(=O)N(Cc1cccc(N(CCO)C(C)C)n1)[C@H](CC(C)(C)C)CO2 [Compound 530]
EC50 (Table 13): < 1 µM | Emax [7]: > 60%

Compound: Cc1cccc(C)c1-c1cc2nc(n1)NS(=O)(=O)c1cccc(c1)C(=O)N(Cc1cn(C(C)C)cn1)[C@H](CC(C)(C)C)CO2 [Compound 232]
activation at 10 µM [5]: > 600%

Compound: Cc1cccc(C)c1-c1cc2nc(n1)NS(=O)(=O)c1cccc(c1)C(=O)N(Cc1cccnc1N1CCOCC1)[C@H](CC(C)(C)C)CO2 [Compound 374]
EC50 (Table 10): < 1 µM | Emax [6]: > 60%

Compound: Cc1cccc(C)c1-c1cc2nc(n1)NS(=O)(=O)c1cccc(c1)C(=O)N(Cc1ncccc1O)[C@H](CC(C)(C)C)CO2 [Compound 54, (11R)-6-(2,6-Dimethylphenyl)-11-(2,2-dimethylpropyl)-12-[(3-hydroxy-2-pyridyl)methyl]-2,2-dioxo-9-oxa-2λ^6-thia-3,5,12,19-tetrazatricyclo[12.3.1.14,8]nonadeca-1(18),4(19),5,7,14,16-hexaen-13-one]
EC50 (Table 10): < 1 µM | Emax [6]: > 60%

Compound: Cc1cccc(C)c1-c1cc2nc(n1)NS(=O)(=O)c1cccc(c1)C(=O)N(CC(=O)N1CCC3(CCCC3)CC1)[C@H](CC(C)(C)C)CO2 [Compound 183]
activation at 10 µM [9]: > 600%

Compound: Cc1cccc(C)c1-c1cc2nc(n1)NS(=O)(=O)c1cccc(c1)C(=O)N(Cc1nc(C(C)C)c[nH]1)[C@H](CC(C)(C)C)CO2 [Compound 264]
activation at 10 µM [5]: < 30% | EC50 (Table 12): < 1 µM | Emax [4]: > 60%

Compound: Cc1cccc(C)c1-c1cc2nc(n1)NS(=O)(=O)c1cccc(c1)C(=O)N(Cc1ncc(OC(=O)OC(C)(C)C)cn1)[C@H](CC(C)(C)C)CO2 [Compound 557]
activation at 10 µM [5]: > 600%

Compound: Cc1cccc(C)c1-c1cc2nc(n1)NS(=O)(=O)c1cccc(c1)C(=O)N(Cc1ccc([Si](C)(C)C)cc1)[C@H](CC(C)(C)C)CO2 [Compound 795]
activation at 10 µM [2]: > 60%

Compound: Cc1cccc(C)c1-c1cc2nc(n1)NS(=O)(=O)c1cccc(c1)C(=O)N(Cc1ccc(C(C)(C)C)cn1)[C@H](CC(C)(C)C)CO2 [Compound 496]
EC50 (Table 10): < 1 µM | Emax [6]: > 60%

Compound: Cc1cccc(C)c1-c1cc2nc(n1)NS(=O)(=O)c1cccc(c1)C(=O)N(Cc1ccn(CC(C)C)n1)[C@H](CC(C)(C)C)CO2 [Compound 454]
EC50 (Table 12): < 1 µM | Emax [4]: > 60%

Compound: Cc1cccc(C)c1-c1cc2nc(n1)NS(=O)(=O)c1cccc(c1)C(=O)N(CC(=O)NC1CCCC(C)(C)C1)[C@H](CC(C)(C)C)CO2 (some centres unmarked) [Compound 175]
activation at 10 µM [9]: > 600%

Compound: Cc1cccc(C)c1-c1cc2nc(n1)NS(=O)(=O)c1cccc(c1)C(=O)N(Cc1cncc(N3CCC(C)(C)C3)c1)[C@H](CC(C)(C)C)CO2 [Compound 285]
EC50 (Table 12): < 1 µM | Emax [4]: > 60%

Compound: Cc1cccc(C)c1-c1cc2nc(n1)NS(=O)(=O)c1cccc(c1)C(=O)N(Cc1cccc(N3CC(C)(C)CC3(C)C)n1)[C@H](CC(C)(C)C)CO2 [Compound 597]
EC50 (Table 12): < 1 µM | Emax [4]: 30 to 60%

Compound: Cc1cccc(C)c1-c1cc2nc(n1)NS(=O)(=O)c1cccc(c1)C(=O)N(Cc1ncc(N3CCC[C@@H]3C)cn1)[C@H](CC(C)(C)C)CO2 [Compound 569]
EC50 (Table 12): < 1 µM | Emax [4]: > 60%

Now from value to compound:

EC50 (HBE assay): < 1 µM | Emax [1]: > 60%
Compound: Cc1cccc(C)c1-c1cc2nc(n1)NS(=O)(=O)c1cccc(c1)C(=O)N(Cc1cccc(NC3CCOC3)n1)[C@H](CC(C)(C)C)CO2 (some centres unmarked) [Compound 1352]

activation at 10 µM [2]: > 60%
Compound: Cc1cccc(C)c1-c1cc2nc(n1)NS(=O)(=O)c1cccc(c1)C(=O)N(Cc1cnn(C)c1C)[C@H](CC(C)(C)C)CO2 [Compound 824]

EC50 (Table 13): < 1 µM
Compound: Cc1cccc(C)c1-c1cc2nc(n1)NS(=O)(=O)c1cccc(c1)C(=O)N(Cc1ncc([C@@H](O)CO)cn1)[C@H](CC(C)(C)C)CO2 [Compound 1152]

Emax [3]: < 30%
Compound: Cc1ccc(C)c(-c2cc3nc(n2)NS(=O)(=O)c2cccc(c2)C(=O)N(Cc2ccc(N4CCCCC4)cn2)[C@H](CC(C)(C)C)CO3)c1C [Compound 902]

activation at 10 µM [5]: > 600% | EC50 (Table 12): < 1 µM | Emax [4]: < 30%
Compound: Cc1cccc(C)c1-c1cc2nc(n1)NS(=O)(=O)c1cccc(c1)C(=O)N(Cc1ncc(N3CCC(C)(C)C3)cn1)[C@H](C(C)C)CO2 [Compound 695]

EC50 (Table 11): < 1 µM | Emax [3]: > 60%
Compound: Cc1cccc(C)c1-c1cc2nc(n1)NS(=O)(=O)c1cccc(c1)C(=O)N(Cc1cnc(N3CCC(C)(C)C3)cn1)[C@H](CC(C)(C)C)CO2 [Compound 607]

EC50 (Table 11): < 1 µM | Emax [3]: > 60%
Compound: Cc1cccc(C)c1-c1cc2nc(n1)NS(=O)(=O)c1cccc(c1)C(=O)N(Cc1cccc(NC(C)C)n1)[C@H](CC(C)(C)C)CO2 [Compound 736]

EC50 (Table 10): < 1 µM | Emax [6]: > 60%
Compound: Cc1cccc(C)c1-c1cc2nc(n1)NS(=O)(=O)c1cccc(c1)C(=O)N(Cc1nccc3ccccc13)[C@H](CC(C)(C)C)CO2 [Compound 767]

activation at 10 µM [2]: > 60%
Compound: Cc1cccc(C)c1-c1cc2nc(n1)NS(=O)(=O)c1cccc(c1)C1Oc3ccc4ncccc4c3CN1[C@H](CC(C)(C)C)CO2 (some centres unmarked) [Compound 750]

EC50 (HBE assay): 1 to 3 µM | Emax [1]: > 60%
Compound: Cc1cccc(C)c1-c1cc2nc(n1)NS(=O)(=O)c1cccc(c1)C(=O)N(Cc1ncc(OC3CCCC3)cn1)[C@H](CC(C)C)CO2 [Compound 1408]

EC50 (Table 13): 1 to 3 µM | Emax [7]: > 60%
Compound: Cc1cccc(C)c1-c1cc2nc(n1)NS(=O)(=O)c1cccc(n1)C(=O)N(Cc1ccc(N(C)CC(C)(C)C)cn1)[C@H](CC(C)(C)C)CO2 [Compound 1125]

EC50 (Table 11): < 1 µM | Emax [3]: > 60%
Compound: CCN(c1ccnc(CN2C(=O)c3cccc(c3)S(=O)(=O)Nc3nc(cc(-c4c(C)cccc4C)n3)OC[C@H]2CC(C)(C)C)n1)C(C)C [Compound 602]

EC50 (HBE assay): < 1 µM | Emax [1]: > 60%
Compound: Cc1cccc(C)c1-c1cc2nc(n1)NS(=O)(=O)c1cccc(c1)C(=O)N(Cc1ncc(N3CCC(C)(C)C3)cn1)[C@H](CC1CC1)CO2 [Compound 1464]

activation at 10 µM [8]: > 60%
Compound: Cc1cccc(C)c1-c1cc2nc(n1)NS(=O)(=O)c1cccc(c1)C(=O)N(Cc1ncc(OC(C)C)cn1)[C@H](CC(C)(C)F)CO2 [Compound 1308, (11R)-6-(2,6-Dimethylphenyl)-11-(2-fluoro-2-methyl-propyl)-12-[(5-isopropoxypyrimidin-2-yl)methyl]-2,2-dioxo-9-oxa-2λ^6-thia-3,5,12,19-tetrazatricyclo[12.3.1.14,8]nonadeca-1(18),4(19),5,7,14,16-hexaen-13-one]

EC50 (Table 11): < 1 µM | Emax [3]: > 60%
Compound: Cc1cccc(C)c1-c1cc2nc(n1)NS(=O)(=O)c1cccc(c1)C(=O)N(Cc1cccc(C(C)(C)O)n1)[C@H](CC(C)(C)C)CO2 [Compound 817]

EC50 (HBE assay): < 1 µM | Emax [1]: > 60%
Compound: COCCOc1cnc(CN2C(=O)c3cccc(c3)S(=O)(=O)Nc3nc(cc(-c4c(C)cccc4C)n3)OC[C@H]2CC(C)(C)C)c(C)c1 [Compound 1382]

Emax [6]: > 60%
Compound: Cc1cccc(C)c1-c1nc2nc(c1C)OC[C@@H](CC(C)(C)C)N(CC1CCCO1)C(=O)c1cccc(c1)S(=O)(=O)N2 (some centres unmarked) [Compound 836]

EC50 (Table 11): < 1 µM | Emax [3]: > 60%
Compound: CCOc1ccc(CN2C(=O)c3cccc(c3)S(=O)(=O)Nc3nc(cc(-c4c(C)cccc4C)n3)OC[C@H]2CC(C)(C)C)nc1 [Compound 745]

EC50 (Table 13): < 1 µM | Emax [7]: > 60%
Compound: Cc1cccc(C)c1-c1cc2nc(n1)NS(=O)(=O)c1cccc(c1)C(=O)N(Cc1ccc(NC(C)C)cn1)[C@H](CC(C)(C)C)CO2 [Compound 996]

EC50 (HBE assay): < 1 µM | Emax [1]: > 60%
Compound: Cc1cccc(C)c1-c1cc2nc(n1)NS(=O)(=O)c1cccc(c1)C(=O)N(Cc1ncc(N3C[C@@H](F)[C@@H](F)C3)cn1)[C@H](CC(C)(C)C)CO2 [Compound 1481]

EC50 (Table 13): < 1 µM | Emax [7]: > 60%
Compound: Cc1cccc(C)c1-c1cc2nc(n1)NS(=O)(=O)c1cccc(c1)C(=O)N(Cc1ncc(N3CCOC4(CC4)C3)cn1)[C@H](CC(C)(C)C)CO2 [Compound 1148]

activation at 10 µM [8]: > 60%
Compound: Cc1cccc(C)c1-c1cc2nc(n1)NS(=O)(=O)c1cccc(c1)C(=O)N(Cc1cncc(N3CCC[C@@H]3C3CCOCC3)n1)[C@H](CC(C)(C)C)CO2 [Compound 1534]

EC50 (Table 13): < 1 µM | Emax [7]: > 60%
Compound: COC1CC2(C1)CN(c1cnc(CN3C(=O)c4cccc(c4)S(=O)(=O)Nc4nc(cc(-c5c(C)cccc5C)n4)OC[C@H]3CC(C)(C)C)nc1)C2 [Compound 868]
